Measurements reported in patent publication US10676408B2, “Alkynylpyrazoles as nitrification inhibitors” (BASF SE, priority 2014, dated 2020).

system: nitrification; assay: Inhibition of nitrification in soil (48 well plate, ammonium sulfate, color reaction at 540 nm); assay type: cell-based; settings: dose of 10 ppm in 1% DMSO; field soil (e.g. Limburgerhof); incubated at room temperature for up to 72 hrs; inhibition = 100 − % activity compared to control; read-out: IN (best inhibition value obtained for a compound)
Method: The compounds of the invention have been tested as follows in terms of the inhibition of nitrification:
Soil was sampled fresh from a field (e.g. Limburgerhof), dried and sieved through a 500 μm sieve. Approximately 200 mg of soil were placed into each well of a 48 well plate. Compounds, or DMSO alone, were added at a concentration of 10 ppm, dissolved in 1% DMSO. 6 μmol ammonium sulfate was added per well as well as 4.8 mg NaClO3.
Subsequently, the samples were incubated at room temperature for up to 72 hrs. After the incubation period 64 mg KCl were added and mixed. 25 μl of the supernatant were placed into a fresh plate and 260 μl of a color reaction solution (from Merck Nr 1.11799.0100) were added.
Measurements were taken with a Tecan plate Reader at 540 nm wavelength.
Inhibition is calculated as x=% activity compared to control, and converted to 100−x to give the value of inhibition, rather than activity.

SMILES	inhibition at 10 ppm
C#Cc1c(C)nn(C)c1C [Compound 3]	27%
C#Cc1ccnn1C [Compound 2]	24%
C#Cc1cc(C#C)n(C)n1 [Compound 1]	55%
